Measured values published in patent US7118895B2, “Process for producing aglycon by using diglycosidase and flavor-improved food containing the aglycon and converting agent to be used in the process” (Amano Enzyme Inc., priority 2000, dated 2006).

Test system: Crude diglycosidase
Assay: Examination of substrate concentration in the conversion into isoflavone aglycons by diglycosidase using soybean materials;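 also: percent of the isoflavone family total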
Format: biochemical, Penicillium multicolor IAM7153
Summary of the method: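 Reaction at 55° C, shaken, pH 4.0 (20 mM acetate), using crude diglycosidase from a 1.88 AU/mL enzyme solution on soy flour, soymilk, defatted soybean or soy protein concentrate at 2, 5, 10, 20 or 30% (w/v). Isoflavone aglycons quantified by HPLC of ethanol extracts at 0, 1, 3, 6 h.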

Decomposition efficiency: ratio of each glycoside/aglycon within its isoflavone family (defatted soybean, substrate concentration 10%, heat treatment of enzyme no, reaction time 1 h): not detected
Decomposition efficiency: ratio of each glycoside/aglycon within its isoflavone family (defatted soybean, substrate concentration 10%, heat treatment of enzyme no, reaction time 3 h): not detected
Decomposition efficiency: ratio of each glycoside/aglycon within its isoflavone family (defatted soybean, substrate concentration 10%, heat treatment of enzyme no, reaction time 6 h): not detected
Decomposition efficiency: ratio of each glycoside/aglycon within its isoflavone family (defatted soybean, substrate concentration 10%, heat treatment of enzyme yes, reaction time 6 h): not detected
Decomposition efficiency: ratio of each glycoside/aglycon within its isoflavone family (roasted soy flour, substrate concentration 2%, heat treatment of enzyme no, reaction time 0 h): 50.2%
Decomposition efficiency: ratio of each glycoside/aglycon within its isoflavone family (roasted soy flour, substrate concentration 2%, heat treatment of enzyme no, reaction time 1 h): not detected
Decomposition efficiency: ratio of each glycoside/aglycon within its isoflavone family (roasted soy flour, substrate concentration 2%, heat treatment of enzyme no, reaction time 3 h): not detected
Decomposition efficiency: ratio of each glycoside/aglycon within its isoflavone family (roasted soy flour, substrate concentration 2%, heat treatment of enzyme no, reaction time 6 h): not detected
Decomposition efficiency: ratio of each glycoside/aglycon within its isoflavone family (roasted soy flour, substrate concentration 2%, heat treatment of enzyme yes, reaction time 6 h): 53.4%
Decomposition efficiency: ratio of each glycoside/aglycon within its isoflavone family (roasted soy flour, substrate concentration 5%, heat treatment of enzyme no, reaction time 0 h): 54.8%
Decomposition efficiency: ratio of each glycoside/aglycon within its isoflavone family (roasted soy flour, substrate concentration 5%, heat treatment of enzyme no, reaction time 1 h): not detected
Decomposition efficiency: ratio of each glycoside/aglycon within its isoflavone family (roasted soy flour, substrate concentration 5%, heat treatment of enzyme no, reaction time 3 h): not detected
Decomposition efficiency: ratio of each glycoside/aglycon within its isoflavone family (roasted soy flour, substrate concentration 5%, heat treatment of enzyme no, reaction time 6 h): not detected
Decomposition efficiency: ratio of each glycoside/aglycon within its isoflavone family (roasted soy flour, substrate concentration 5%, heat treatment of enzyme yes, reaction time 6 h): 54.8%
Decomposition efficiency: ratio of each glycoside/aglycon within its isoflavone family (roasted soy flour, substrate concentration 10%, heat treatment of enzyme no, reaction time 0 h): 70.3%
Decomposition efficiency: ratio of each glycoside/aglycon within its isoflavone family (roasted soy flour, substrate concentration 10%, heat treatment of enzyme no, reaction time 1 h): not detected
Decomposition efficiency: ratio of each glycoside/aglycon within its isoflavone family (roasted soy flour, substrate concentration 10%, heat treatment of enzyme no, reaction time 3 h): not detected
Decomposition efficiency: ratio of each glycoside/aglycon within its isoflavone family (roasted soy flour, substrate concentration 10%, heat treatment of enzyme no, reaction time 6 h): not detected
Decomposition efficiency: ratio of each glycoside/aglycon within its isoflavone family (roasted soy flour, substrate concentration 10%, heat treatment of enzyme yes, reaction time 6 h): 55.0%
Decomposition efficiency: ratio of each glycoside/aglycon within its isoflavone family (roasted soy flour, substrate concentration 20%, heat treatment of enzyme no, reaction time 0 h): 59.6%
Decomposition efficiency: ratio of each glycoside/aglycon within its isoflavone family (roasted soy flour, substrate concentration 20%, heat treatment of enzyme no, reaction time 1 h): not detected
Decomposition efficiency: ratio of each glycoside/aglycon within its isoflavone family (roasted soy flour, substrate concentration 20%, heat treatment of enzyme no, reaction time 3 h): not detected
Decomposition efficiency: ratio of each glycoside/aglycon within its isoflavone family (roasted soy flour, substrate concentration 20%, heat treatment of enzyme no, reaction time 6 h): not detected
Decomposition efficiency: ratio of each glycoside/aglycon within its isoflavone family (roasted soy flour, substrate concentration 20%, heat treatment of enzyme yes, reaction time 6 h): 56.0%
Decomposition efficiency: ratio of each glycoside/aglycon within its isoflavone family (roasted soy flour, substrate concentration 30%, heat treatment of enzyme no, reaction time 0 h): 55.9%
Decomposition efficiency: ratio of each glycoside/aglycon within its isoflavone family (roasted soy flour, substrate concentration 30%, heat treatment of enzyme no, reaction time 1 h): not detected
Decomposition efficiency: ratio of each glycoside/aglycon within its isoflavone family (roasted soy flour, substrate concentration 30%, heat treatment of enzyme no, reaction time 3 h): not detected
Decomposition efficiency: ratio of each glycoside/aglycon within its isoflavone family (roasted soy flour, substrate concentration 30%, heat treatment of enzyme no, reaction time 6 h): not detected
Decomposition efficiency: ratio of each glycoside/aglycon within its isoflavone family (roasted soy flour, substrate concentration 30%, heat treatment of enzyme yes, reaction time 6 h): 56.9%
Decomposition efficiency: ratio of each glycoside/aglycon within its isoflavone family (soymilk, substrate concentration 2%, heat treatment of enzyme no, reaction time 0 h): 71.8%
Decomposition efficiency: ratio of each glycoside/aglycon within its isoflavone family (soymilk, substrate concentration 2%, heat treatment of enzyme no, reaction time 1 h): not detected
Decomposition efficiency: ratio of each glycoside/aglycon within its isoflavone family (soymilk, substrate concentration 2%, heat treatment of enzyme no, reaction time 3 h): not detected
Decomposition efficiency: ratio of each glycoside/aglycon within its isoflavone family (soymilk, substrate concentration 2%, heat treatment of enzyme no, reaction time 6 h): not detected
Decomposition efficiency: ratio of each glycoside/aglycon within its isoflavone family (soymilk, substrate concentration 2%, heat treatment of enzyme yes, reaction time 6 h): 51.8%
Decomposition efficiency: ratio of each glycoside/aglycon within its isoflavone family (soymilk, substrate concentration 5%, heat treatment of enzyme no, reaction time 0 h): 49.4%
Decomposition efficiency: ratio of each glycoside/aglycon within its isoflavone family (soymilk, substrate concentration 5%, heat treatment of enzyme no, reaction time 1 h): not detected
Decomposition efficiency: ratio of each glycoside/aglycon within its isoflavone family (soymilk, substrate concentration 5%, heat treatment of enzyme no, reaction time 3 h): not detected
Decomposition efficiency: ratio of each glycoside/aglycon within its isoflavone family (soymilk, substrate concentration 5%, heat treatment of enzyme no, reaction time 6 h): not detected
Decomposition efficiency: ratio of each glycoside/aglycon within its isoflavone family (soymilk, substrate concentration 5%, heat treatment of enzyme yes, reaction time 6 h): 56.7%
Decomposition efficiency: ratio of each glycoside/aglycon within its isoflavone family (soymilk, substrate concentration 10%, heat treatment of enzyme no, reaction time 0 h): 52.5%
Decomposition efficiency: ratio of each glycoside/aglycon within its isoflavone family (soymilk, substrate concentration 10%, heat treatment of enzyme no, reaction time 1 h): not detected
Decomposition efficiency: ratio of each glycoside/aglycon within its isoflavone family (soymilk, substrate concentration 10%, heat treatment of enzyme no, reaction time 3 h): not detected
Decomposition efficiency: ratio of each glycoside/aglycon within its isoflavone family (soymilk, substrate concentration 10%, heat treatment of enzyme no, reaction time 6 h): not detected
Decomposition efficiency: ratio of each glycoside/aglycon within its isoflavone family (soymilk, substrate concentration 10%, heat treatment of enzyme yes, reaction time 6 h): 56.8%
Decomposition efficiency: ratio of each glycoside/aglycon within its isoflavone family (soymilk, substrate concentration 20%, heat treatment of enzyme no, reaction time 0 h): 52.4%
Decomposition efficiency: ratio of each glycoside/aglycon within its isoflavone family (soymilk, substrate concentration 20%, heat treatment of enzyme no, reaction time 1 h): not detected
Decomposition efficiency: ratio of each glycoside/aglycon within its isoflavone family (soymilk, substrate concentration 20%, heat treatment of enzyme no, reaction time 3 h): not detected
Decomposition efficiency: ratio of each glycoside/aglycon within its isoflavone family (soymilk, substrate concentration 20%, heat treatment of enzyme no, reaction time 6 h): not detected
Decomposition efficiency: ratio of each glycoside/aglycon within its isoflavone family (soymilk, substrate concentration 20%, heat treatment of enzyme yes, reaction time 6 h): 55.5%
Decomposition efficiency: ratio of each glycoside/aglycon within its isoflavone family (soymilk, substrate concentration 30%, heat treatment of enzyme no, reaction time 0 h): 50.9%
Decomposition efficiency: ratio of each glycoside/aglycon within its isoflavone family (soymilk, substrate concentration 30%, heat treatment of enzyme no, reaction time 1 h): not detected
Decomposition efficiency: ratio of each glycoside/aglycon within its isoflavone family (soymilk, substrate concentration 30%, heat treatment of enzyme no, reaction time 3 h): not detected
Decomposition efficiency: ratio of each glycoside/aglycon within its isoflavone family (soymilk, substrate concentration 30%, heat treatment of enzyme no, reaction time 6 h): not detected
Decomposition efficiency: ratio of each glycoside/aglycon within its isoflavone family (soymilk, substrate concentration 30%, heat treatment of enzyme yes, reaction time 6 h): 55.8%
SMILES: COc1cc2c(=O)c(-c3ccc(O)cc3)coc2cc1O[C@@H]1O[C@H](CO)[C@@H](O)[C@H](O)[C@H]1O [glycitin]
